These results are taken from patent US20250381269A1, “BISPECIFIC ANTIBODY BINDING EGFR AND B7-H3” (FORTVITA BIOLOGICS (SINGAPORE) PTE. LTD., priority 2022, published 2025).

The test system of experiment [1] is H292. The experiment can be described thus: Proliferation inhibition experiment, H292 (NSCLC). Type of experiment: cell-based. The settings on record: EGFR WT, KRAS WT. The protocol:
(§1) • (1) NSCLC: plated at 1500-2500 cells/100 μL in a 96-well low-adsorption plate (Corning, CLS7007-24EA) for 3D cell culture, in which the following cell lines and specific amounts were used: • NSCLC: 2000 cells/100 μL/well • NCI-H292: Cell Bank of the Chinese Academy of Sciences, SCSP-582 • NCI-H322: Cobioer, CBP60134 • NCI-H1650: ATCC, CRL-5883 • NCI-H1975: ATCC, CRL-5908 • SK-MES-1: CoBioer, CBP60152 • NCI-H1703: ATCC, HTB-43 • PC9+hB7H3: constructed as described above • CRC and HNSCC: plated at 1500-2000 cells/100 μL in a 96-well white-bottom plate (NUNC, 136101) for 2D cell culture, in which the following cell lines and specific amounts were used: • CRC: 1500 cells/100 μL/well • CCK-81: CoBioer, CBP60581 • HT-55: CoBioer, CBP60012 • H508: CoBioer, CBP60795 • LS180: CoBioer, CBP60034 • HNSCC: 1500 cells/100 μL/well • TE-1: CoBioer, CBP60655 • Colo680: CoBioer, CBP60452. (2) The antibody molecules prepared in advance by dilution were added to the corresponding cell well plate, mixed well, and cultured in an incubator at 37° C. with 5% CO2 for 5 days. • (3) After 5 days of continuous culture for proliferation inhibition assay, the Cell-Titer reagent (Promega, G7572) prepared in advance was added to cell wells, the plate was left to stand at room temperature for 15-25 min in the dark, and then CRC and HNSCC cells were directly detected by a multimode microplate reader (Molecular Devices, Spectra MAXi3). • (4) NSCLC: Cell-Titer and the cell mixture were transferred to a 96-well white-bottom plate (NUNC, 136101) and detected by a multimode microplate reader (Molecular Devices, Spectra MAXi3).

A further experiment concerns TE-1. The experiment can be described thus: Proliferation inhibition experiment, TE-1 (HNSCC). Type of experiment: cell-based. The settings on record: EGFR WT, KRAS WT. The protocol:
as §1

Experiment [2] has as its system H292. The experiment can be described thus: ADCC report assay, H292. Type of experiment: cell-based. The following applies: EGFR WT, KRAS WT, effector/target 10:1, 20 h. The protocol:
(§2) In the ADCC report assay, ADCC effector cells ((Promega, G7102)) are engineered cells in which FcRIIIa (V158) receptor is overexpressed into Jurkat T cells, which rapidly respond to ADCC through the NFAT-RE driving element within the Jurkat T cells.
(§3) • (1) Tumor cells (cell lines listed in Table 3) and ADCC effector cells (Promega, G7102) were mixed well (1.5E4 cells: 1.5E5 cells/well/100 μL (1.5E5: 1.5E6 cells/mL)) according to an effector/target ratio (10:1), and added to a 96-well white plate (NUNC, 136101). • (2) The antibody molecules prepared in advance by dilution were added to the corresponding cell well plates, mixed well, and cultured at 37° C. with 5% CO2 for 20 h. • (3) The Bio-glo reagent (Promega, G755B) prepared in advance was added to the cell well plate, the plate was left to stand at room temperature for 10-15 min in the dark, and then the cells were detected by a multimode microplate reader (Molecular Devices, Spectra MAXi3).

The test system of experiment [3] is SK-MES-1 tumor-bearing mice. The experiment can be described thus: Anti-tumor efficacy in SK-MES-1 tumor-bearing mice, 1 mg/kg single dose. It counts as in vivo. The settings on record: SK-MES-1, Balb/c Nude mice, day 24; for Tumor volume (mm^3): 1 mg/kg i.p. single dose on day 6; for Complete response rate / Tumor growth inhibition (%): 1 mg/kg i.p. single dose; for Complete response rate: 7 mice per group; for Tumor growth inhibition (%): vs h-IgG 1 mg/kg. From the text:
SPF female Balb/c Nude mice (purchased from Beijing Vital River Laboratory Animal Technology Co., Ltd.) with certificate No. 110011211108966881 were used in the experiment.
SK-MES-1 cells were routinely subcultured for the subsequent in-vivo experiment. The cells were collected by centrifugation. Then the SK-MES-1 cells were resuspended in an equal-proportion mixture of PBS (1×) and Matrigel Matrix (Corning) to prepare a cell suspension with a cell concentration of 20×10^6 cells/mL. On day 0, 0.2 mL of the cell suspension was taken and subcutaneously inoculated to the right abdominal area of Balb/c Nude mice to establish SK-MES-1 tumor-bearing mouse models.
(§4) Six days after the tumor cell inoculation, the tumor volume in each mouse was measured. The mice were grouped (with 7 mice in each group).
Administration was performed once on day 6 after the inoculation of SK-MES-1 cells. Mice were monitored for tumor volume and body weight twice a week.
(§5) Tumor volume measurement: The maximum length of major axis (L) and maximum length of minor axis (W) of tumors were measured with a vernier caliper, and tumor volume was calculated by the following formula: V=L×W^2/2. The mice were weighed using an electronic balance.

In experiment [4] the test system is NCI-H358 tumor-bearing mice. The experiment can be described thus: Anti-tumor efficacy in NCI-H358 tumor-bearing mice, combination with AMG510. It counts as in vivo, NOG mice. The following applies: NCI-H358, NOG mice, day 33; for Tumor volume (mm^3): antibodies 10 mg/kg i.p. Q3-4D x4 (h-IgG 20 mg/kg), AMG510 10 mg/kg intragastric QD x14; for Tumor growth inhibition (%): antibodies 10 mg/kg i.p. Q3-4D x4, AMG510 10 mg/kg intragastric QD x14, vs h-IgG 20 mg/kg. The procedure:
SPF female NOG mice (purchased from Beijing Vital River Laboratory Animal Technology Co., Ltd.) with certificate No. 1100112211001153625 were used in the experiment.
NCI-H358 cells were routinely subcultured for the subsequent in-vivo experiment. The cells were collected by centrifugation. Then the NCI-H358 cells were resuspended in an equal-proportion mixture of PBS (1×) and Matrigel Matrix (Corning) to prepare a cell suspension with a cell concentration of 25×10^6 cells/mL. On day 0, 0.2 mL of the cell suspension was taken and subcutaneously inoculated to the right abdominal area of NOG mice to establish NCI-H358 tumor-bearing mouse models.
as §4
Administration was performed on days 6, 9, 12, and 15 after the inoculation of NCI-H358 cells. Mice were monitored for tumor volume and body weight twice a week. […] Mice were monitored for tumor volume twice a week, and were monitored for body weight every day during the administration, and twice a week after the end of administration. […] On day 33 after the inoculation, the relative tumor growth inhibition (TG1%) was calculated by the following formula: TG1%=100%×(control group tumor volume−treatment group tumor volume)/(control group tumor volume−control group tumor volume before administration).
as §5

The test system of another experiment is SK-MES-1. The experiment can be described thus: Proliferation inhibition experiment, SK-MES-1 (NSCLC). It counts as cell-based. The settings on record: EGFR Amplification, KRAS WT. The procedure: as §1
A further experiment deals with H1703. The experiment can be described thus: ADCC report assay, H1703. Type of experiment: cell-based. The following applies: EGFR Amplification, KRAS WT, effector/target 10:1, 20 h. The protocol:
as §2, §3

For a further experiment, the system named is H1650. The experiment can be described thus: Proliferation inhibition experiment, H1650 (NSCLC). The settings on record: EGFR Amplification Del19, KRAS WT. Type of experiment: cell-based. The procedure:
as §1

The subject of another experiment is H1975. The experiment can be described thus: ADCC report assay, H1975. The following applies: EGFR L858R T790M, KRAS WT, effector/target 10:1, 20 h. It counts as cell-based. The procedure:
as §2, §3

By IC50 is commonly meant the concentration at which inhibition is half-maximal. Broadly, the EC50 is the concentration giving half of the maximal effect. Higher therefore signals lower potency in that assay. amivantamab [JNJ372]: the “Max inhibition (%) Mean ± SD” value came to 64.5 ± 2.5% in the experiment with H292 [1], 32.2 ± 4.7% with TE-1, 66.1 ± 3.7% with SK-MES-1 and 31.0 ± 1.4% in the experiment on H1650. For the same substance, the IC50 in the experiment on H292 [1] (3D culture, 5 days) stood at 141 nM; with TE-1 (2D culture, 5 days), 570 nM; with SK-MES-1 (3D culture, 5 days), 9.82 nM; with H1650 (3D culture, 5 days) it was 20.6 nM. Also, the EC50 in the experiment on H292 [2] amounted to 0.083 nM; in the experiment with H1703, 0.119 nM; with H1975, 0.063 nM. Further, the “Tumor volume (mm^3)” value in experiment [3] is 87 mm^3; in experiment [4] it was 196 mm^3. Besides, the Complete response rate in [3] is 0/7. Also, the “Tumor growth inhibition (%)” value is recorded as 122% in [3] and 82% in [4].

In the case of zalutumumab [Zalu mAb], the “Max inhibition (%) Mean ± SD” value worked out at 79.4 ± 1.6% with H292 [1], 42.2 ± 1.1% in the experiment with TE-1, 67.8 ± 4.1% in the experiment with SK-MES-1 and 26.8 ± 2.6% with H1650. The EC50 was determined as 0.009 nM with H292 [2], 0.007 nM in the experiment on H1703 and 0.029 nM in the experiment on H1975. The “Tumor volume (mm^3)” value in experiment [3] came out at 23 mm^3; in [4], 126 mm^3. Further, in [3], the Complete response rate is listed as 2/7. Further, the “Tumor growth inhibition (%)” value in experiment [3] is reported as 145%; in experiment [4], 111%.
